Results published in patent US9995734B2, “Human T cell line assay for evaluating the immunologic identity of glatiramer acetate preparations” (Mylan Inc., priority 2013, dated 2018).

Test system: Donor 1 Human T-Cell Lines (GMA-stimulated)
Test: BrdU uptake proliferation assay, Donor 1 T-cell lines initially stimulated with GMA
Type: cell-based
Conditions: 10 μg/mL GMA
Procedure: Proliferation was evaluated by measuring ATP content using a luminescent method (CellTiter Glo Luminescent Cell Viability Assay, Promega, Madison, Wis., cat. #G7571) or by measuring BrdU uptake by ELISA (Millipore cat. #2752), in both cases following kit instructions. A split well format was used. Cells in each well were resuspended and 65 μl transferred to the wells of each of two new U-bottom 96-well plates, to generate the replicate plates. For the initial screening, the original 96-well plate received mitomycin-treated autologous PBMC as APC plus 10 μg/mL antigen (GA). A first replicate plate received 100 μl., mitomycin-treated PBMC alone (2×10^5), and no antigen, and a second replicate plate received 100 μL mitomycin-treated PBMC plus GA at a final concentration of 10 μg/mL. Therefore, all three plates received autologous APC (PBMC) treated with mitomycin C to prevent cell division. […] The latter two plates were incubated for 3 days at 37° C., 6% CO2 before adding CellTiter Glo or BrdU and measuring signal. IL-2 was added at 10 U/mL to the original 96-well plate for expansion on Day 17. For subsequent screenings, mitomycin-treated EBV-transformed autologous B-LCL (2×10^5 to 5×10^5 cells/mL) were used as APC.
GMA-responsive cell lines were obtained from Donor 1 PBMC as described above (2×10^5 cells/well, i.e., 1×10^6 cells/mL, plated with 10 μg/mL GMA; IL-2 added on Days 3 and 7). In a split well assay begun on Day 12 the cells were stimulated with 10 μg/mL GMA and 1×10^5 mitomycin-treated autologous PBMC as APC. BrdU was added on Day 3, cells were incubated 4.5 hours and fixed, and uptake measured. […] These cell lines each produced an increase in signal of at least 50% relative to (no antigen) control.

glatiramer acetate [GMA]
BrdU uptake (222-AC11, control 0.680): 1.244 OD450
BrdU uptake (222-AF2, control 0.454): 1.119 OD450
BrdU uptake (222-AF5, control 0.606): 1.133 OD450
BrdU uptake (222-AG11, control 0.359): 0.875 OD450
BrdU uptake (222-AG12, control 0.448): 0.949 OD450
BrdU uptake (222-BA4, control 0.370): 0.603 OD450
BrdU uptake (222-BA11, control 0.255): 0.783 OD450
BrdU uptake (222-BC11, control 0.499): 0.921 OD450
increase in signal relative to (no antigen) control (eight Donor 1 cell lines of Table 4): at least 50%
